Test results reported in US20050059627A1, “CRF2 ligands in combination therapy” (priority 2000, published 2005).
d = 2'-deoxy (DNA); m = 2'-O-methyl

Columns and labels:
CRF2 receptor mRNA = test: Quantitative in situ hybridization of CRF2 receptor mRNA; type: in vivo, rodent; conditions: 9 days dosing
From the text: The absence of functional changes resulting from small antisense inhibitory effects often leads to non-interpretable results. This is due to the uncertainty of whether the experiment produced truly negative results or whether the antisense inhibition was insufficient to reveal a functional change. In addition to the antisense sequence, the magnitude of antisense inhibitory effects is influenced by the duration of antisense treatment and its relation to the half-life of the targeted protein. While the half-life of the CRF2 receptor is unknown, half-lives of other 7-transmembrane receptors in rodent brain (of which the CRF2 receptor is a member) are on the order of 2-3 days. Maximal inhibitory effects are typically seen after antisense treatment for at least 3 protein half-lives. While CRF2 antisense administration for 5 days produced a 40-50% inhibition of the receptor, increasing the duration of dosing to 9 days led to a 70-80% inhibitory effect on receptor binding. […] Therefore, in contrast to Heinrichs et al. whose CRF2 antisense oligonucleotide produced only a 15-20% CRF2 receptor reduction concomitant with significant weight loss in the treated animals, we have optimized antisense reagents for the study of CRF2 receptor function.

CRF2 receptors = test: CRF2 receptor autoradiography: 125I-sauvagine binding in lateral septum of treated rats; type: in vivo, rat
Protocol: Rats were sacrificed by exposure to CO2. Brains were removed and frozen in methylbutane cooled on dry ice before storage at −80° C. Twenty μm sections through the lateral septum were cut on a cryostat(Kopf Instruments) for receptor autoradiography.
After warming to room temperature for 1 hour, brain sections were preincubated for 5 minutes in 50 mM Tris-HCL (pH 7.5) containing 10 mM MgCl2, 2 mM EGTA (ethylene glycol-bis(β-aminoethyl ether)N,N,N′,N′-tetraacetic acid), 0.1% ovalbumin, 0.08 TIU aprotinin and 0.1 mM bacitracin. Total binding was defined using 0.15 nM ^125I-sauvagine (New England Nuclear). CRF2 specific binding was determined in the presence of 1 μM SC-241, a CRF1 selective receptor antagonist (D. H. Rominger et alJ. Pharmacol. Exp. Therap., 286, 459-468, 1998). Non-specific binding was determined using 1 μM a-helical CRF (American Peptide). Incubations were performed in preincubation buffer containing radioligand and appropriate antagonists for 150 minutes. Tissue sections were then washed twice for 5 minutes each, in PBS containing 0.01% Triton X-100. After a final water rinse, excess water was aspirated and the sections were air-dried overnight. The sections and ^125I standard strips (Amersham) were exposed to Hyperfilm μ-Max (Amersham) for 72 hours.
Quantitation of CRF2 specific binding was performed using the NIH ImageMG 1.44 program. Optical density readings were converted to nCi of ligand bound per mg of protein tissue using ^125I standard strips. Between 7 to 9 adjacent sections were quantitated per rat.

rats [1] = test: Freezing assay of anxiety (shock box); type: in vivo, rat
Protocol: CRF2 antisense oligonucleotides were administered intracerebroventricularly to target the lateral septum, a brain region containing high levels of CRF2 receptor and mRNA. The lateral septum is part of the limbic brain region known for its involvement in modulating fear and emotion. Rats treated with saline, antisense and mismatch-control oligonucleotides were tested in two different behavioral models of anxiety. Rodents display a characteristic freezing behavior when experiencing fear and anxiety. In the freezing model of anxiety, such behavior is induced by exposure to brief electrical foot-shocks. […] Administration of anxiolytic drugs such as benzodiazepines and selective serotonin reuptake inhibitors reduces the duration of freezing when previously shocked animals are returned to the shock box. In the antisense experiments, dosing of oligonucleotides began after two consecutive days of foot-shock treatment. Two hours following the last oligonucleotide administration on day 8 of dosing, rats were returned to the shock box and observed for 10 minutes. In this part of the experiment, which examines the effect of the pharmacological agent on conditioned fears, the antisense oligonucleotide, but not its mismatch control, reduced the duration of freezing by 50% (FIG. 3a). […] Furthermore, a robust suppression of CRF2 receptors produced important functional consequences that may not be apparent at lower levels of CRF2 receptor inhibition.
The shock box consisted of a black Plexiglas chamber with walls and cover. The doors of the box were constructed of clear Plexiglas over which one-way mirrors were attached for observation. The floor of the box contained a Coulbourn stainless steel shock grid with the bars of the grid spaced 1 cm apart. On the 8th day following surgical implantation of the guide cannulae, rats were placed in the box and allowed to habituate for 2 minutes. A total of 3 scrambled, randomized non-escapable foot-shocks (1.0 mA, 1 second duration) were then delivered at 20 second intervals to the grid floor. […]

rats [2] = test: Elevated plus maze assay; type: in vivo, rat; conditions: dosed 8 days, tested 2 hours after last injection; FIG. 4a
From the text: The elevated plus maze (EPM) is widely used for the determination of anxiolytic or anxiogenic drug effects. The apparatus consists of a +-shaped maze, elevated 50 cm above the floor. Two opposing arms are open and exposed to the environment while the other two arms are enclosed with black Plexiglas sides. In rodents, exposure to the EPM produces an approach/avoidance conflict which generally causes the animal to spend most of its time in the closed arms of the maze.
In the antisense experiment, rats were dosed for 8 days and then tested in the EPM 2 hours after the last oligonucleotide injection. […] Such behavior is indicative of a reduced state of anxiety. […] Binding of ^125I-sauvagine to CRF2 receptors in the lateral septum was reduced by 60% by the antisense oligonucleotide in this experiment (FIG. 4b).
Oligonucleotide treatment of rats was begun on the 8th day following surgery. Rats were tested in the EPM 2 hours following dosing on the 8th day of treatment. At the start of the test, the rat was placed in the center square of the maze and its exploratory behavior during the ensuing 10 minutes was recorded by video-camera. An observer situated outside the test room scored the time spent in the open and closed arms, as well as the number of entries into each arm of the maze. The rats were euthanitized immediately following the conclusion of the test.

TGA CGC agc ggc acC AGA CC (TGACGCAGCGGCACCAGACC; sugars from the 5' end m6 d8 m6, linkages o6 s8 o5 (s phosphorothioate, o phosphodiester), methylation of C not given here) [antisense oligonucleotide]
decrease in CRF2 receptor mRNA (CRF2 receptor mRNA): comparable decreases
inhibition of the receptor (CRF2 receptors; administration for 5 days): 40-50%
CRF2 receptor binding (CRF2 receptors; combination study, saline/methocel control 1.20±0.05): 0.51±0.08 nCi/mg
inhibitory effect on receptor binding (CRF2 receptors; dosing for 9 days): 70-80%
reduction of binding of 125I-sauvagine to CRF2 receptors in the lateral septum (CRF2 receptors; rats of the elevated plus maze experiment, FIG. 4b): 60%
reduction in 125I-sauvagine binding to CRF2 receptors (CRF2 receptors; septal brain region of rats of the freezing assay, FIG. 3b): 70%
reduction in the duration of freezing (rats [1]; after two brief foot-shocks, additional 10 minutes, vs saline or mismatch, FIG. 3a): 50%
freezing in the conditioned anxiety test (rats [1]; combination study: antisense icv 7 days, DPC904 oral, FIG. 7b): significant reductions in freezing
reduction of duration of freezing (rats [1]; conditioned fear, icv, return to shock box, first 10 minutes, FIG. 3a): 50%
time in the open arms of the maze (rats [2]): significantly more time in the open, exposed arms

TGA GGC acc gga acC ACA CC (TGAGGCACCGGAACCACACC; sugars from the 5' end m6 d8 m6, linkages o6 s8 o5 (s phosphorothioate, o phosphodiester), methylation of C not given here) [Mismatch oligonucleotide, 4-base mismatch control of the antisense oligonucleotide, same chimeric chemistry, reference compound]
decrease in CRF2 receptor mRNA (CRF2 receptor mRNA): minimal decreases
decrease in receptor binding (CRF2 receptors; 9 days dosing): minimal decreases
time in the open arms of the maze (rats [2]): not statistically different from saline-treated rats
